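Protocol summary: plate cells (96-well), add compound at 5 concentrations, incubate 48 h, interpolate endpoints linearly. Here, GI50 denotes the concentration required for 50% inhibition of growth. TGI: concentration producing complete growth inhibition.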
Tests used:
Test in all cases: NCI tumour cell line growth inhibition, 48 h
[1] = system: MOLT-4 leukemia
[2] = system: MDA-MB-231 breast
[3] = system: HL-60(TB) leukemia
[4] = system: OVCAR-5 ovarian
[5] = system: T-47D breast
[6] = system: HCT-116 colon
[7] = system: 786-0 renal
[8] = system: SN12C renal
[9] = system: ACHN renal
[10] = system: HT29 colon
[11] = system: CCRF-CEM leukemia
[12] = system: TK-10 renal
[13] = system: SK-MEL-2 melanoma
[14] = system: OVCAR-3 ovarian
[15] = system: UACC-257 melanoma
[16] = system: UO-31 renal
[17] = system: HS 578T breast
[18] = system: NCI/ADR-RES ovarian
[19] = system: IGROV1 ovarian
[20] = system: BT-549 breast
[21] = system: NCI-H460 lung
[22] = system: U251 CNS
[23] = system: SK-OV-3 ovarian
[24] = system: A549 NSCLC
[25] = system: SR leukemia
[26] = system: SF-295 CNS
[27] = system: A498 renal
[28] = system: PC-3 prostate
[29] = system: HOP-62 NSCLC
[30] = system: COLO 205 colon
[31] = system: EKVX NSCLC
[32] = system: SNB-75 CNS
[33] = system: UACC-62 melanoma
[34] = system: RXF 393 renal
[35] = system: LOX IMVI melanoma
[36] = system: K-562 leukemia
[37] = system: HOP-92 NSCLC
[38] = system: OVCAR-8 ovarian
[39] = system: NCI-H23 lung
[40] = system: OVCAR-4 ovarian
[41] = system: RPMI-8226 leukemia
[42] = system: SK-MEL-5 melanoma
[43] = system: DU-145 prostate
[44] = system: NCI-H226 lung
[45] = system: SF-539 CNS
[46] = system: SF-268 CNS
[47] = system: CAKI-1 renal
[48] = system: HCC-2998 colon
[49] = system: HCT-15 colon
[50] = system: SW-620 colon
[51] = system: MCF7 breast
[52] = system: MDA-MB-435
[53] = system: MALME-3M melanoma
[54] = system: SNB-19 CNS
[55] = system: SK-MEL-28 melanoma
[56] = system: NCI-H522 lung
[57] = system: KM12 colon
[58] = system: M14 melanoma

With `C#CCOc1cccc(-c2nc(N)nc(Nc3ccccc3SSc3ccccc3Nc3nc(N)nc(-c4cccc(OCC#C)c4)n3)n2)c1` the GI50 [1] was 4450 nM, the TGI [1] was greater than 33300 nM and the GI50 [2] was 4780 nM. The TGI [2] was greater than 33300 nM, the GI50 [3] was 9920 nM and the TGI [3] was greater than 33300 nM. The GI50 [4] was 7320 nM, the TGI [4] was 28200 nM and the GI50 [5] was 3290 nM. For the same compound, the TGI [5] was greater than 33300 nM, the GI50 [6] was 2000 nM and the TGI [6] was greater than 33300 nM. It also gave a GI50 [7] of 21200 nM, a TGI [7] greater than 33300 nM and a GI50 [8] of 971 nM. It also gave a TGI [8] of 5370 nM, a GI50 [9] of 1190 nM and a TGI [9] of 4350 nM. For the same compound, the GI50 [10] was greater than 33300 nM, the TGI [10] was greater than 33300 nM and the GI50 [11] was 2640 nM. For the same compound, the TGI [11] was greater than 33300 nM, the GI50 [12] was 13100 nM and the TGI [12] was greater than 33300 nM. For the same compound, the GI50 [13] was 16900 nM, the TGI [13] was greater than 33300 nM and the GI50 [14] was 18200 nM. For the same compound, the TGI [14] was greater than 33300 nM, the GI50 [15] was 29700 nM and the TGI [15] was greater than 33300 nM. For the same compound, the GI50 [16] was 1510 nM, the TGI [16] was 5810 nM and the GI50 [17] was 6870 nM. The TGI [17] was 31700 nM, the GI50 [18] was 1890 nM and the TGI [18] was 8560 nM. It also gave a GI50 [19] of 1730 nM, a TGI [19] of 24200 nM and a GI50 [20] of 8520 nM. For the same compound, the TGI [20] was greater than 33300 nM, the GI50 [21] was 1720 nM and the TGI [21] was 8370 nM. It also gave a GI50 [22] of 1080 nM, a TGI [22] of 3820 nM and a GI50 [23] of 13600 nM. It also gave a TGI [23] greater than 33300 nM, a GI50 [24] of 1100 nM and a TGI [24] of 4490 nM. It also gave a GI50 [25] of 1410 nM, a TGI [25] greater than 33300 nM and a GI50 [26] of 751 nM. For the same compound, the TGI [26] was 1930 nM, the GI50 [27] was 6580 nM and the TGI [27] was greater than 33300 nM. It also gave a GI50 [28] of 1610 nM, a TGI [28] greater than 33300 nM and a GI50 [29] of 674 nM. For the same compound, the TGI [29] was 1580 nM, the GI50 [30] was greater than 33300 nM and the TGI [30] was greater than 33300 nM. For the same compound, the GI50 [31] was 7190 nM, the TGI [31] was greater than 33300 nM and the GI50 [32] was 8990 nM. The TGI [32] was 31300 nM, the GI50 [33] was 5430 nM and the TGI [33] was 13300 nM. The GI50 [34] was 33100 nM, the TGI [34] was greater than 33300 nM and the GI50 [35] was 746 nM. The TGI [35] was 1800 nM, the GI50 [36] was 8030 nM and the TGI [36] was greater than 33300 nM. The GI50 [37] was 7770 nM, the TGI [37] was greater than 33300 nM and the GI50 [38] was 2420 nM. For the same compound, the TGI [38] was 12900 nM, the GI50 [39] was 1950 nM and the TGI [39] was 10400 nM. For the same compound, the GI50 [40] was 12900 nM, the TGI [40] was greater than 33300 nM and the GI50 [41] was 1550 nM. The TGI [41] was 17100 nM, the GI50 [42] was 9940 nM and the TGI [42] was greater than 33300 nM. For the same compound, the GI50 [43] was 10600 nM, the TGI [43] was greater than 33300 nM and the GI50 [44] was 4520 nM. It also gave a TGI [44] greater than 33300 nM, a GI50 [45] of 11100 nM and a TGI [45] greater than 33300 nM. The GI50 [46] was 3940 nM, the TGI [46] was 12100 nM and the GI50 [47] was 3780 nM. For the same compound, the TGI [47] was 14200 nM, the GI50 [48] was greater than 33300 nM and the TGI [48] was greater than 33300 nM. For the same compound, the GI50 [49] was 2310 nM, the TGI [49] was greater than 33300 nM and the GI50 [50] was 14300 nM. The TGI [50] was greater than 33300 nM, the GI50 [51] was 17100 nM and the TGI [51] was greater than 33300 nM. For the same compound, the GI50 [52] was 14400 nM, the TGI [52] was greater than 33300 nM and the GI50 [53] was greater than 33300 nM. For the same compound, the TGI [53] was greater than 33300 nM, the GI50 [54] was 7370 nM and the TGI [54] was greater than 33300 nM. For the same compound, the GI50 [55] was greater than 33300 nM, the TGI [55] was greater than 33300 nM and the GI50 [56] was 8130 nM. It also gave a TGI [56] greater than 33300 nM, a GI50 [57] of 1690 nM and a TGI [57] of 11100 nM.
`COC(=O)[C@H]1[C@@H](O)[C@@]2(O)c3c(OC)cc(OC)cc3O[C@@]2(c2ccc(OC)cc2)[C@@H]1c1ccccc1` was tested, and the GI50 [1] was 6.22 nM, the TGI [1] was 488 nM and the GI50 [2] was 32.8 nM. It also gave a TGI [2] of 132 nM, a GI50 [3] of 18.3 nM and a TGI [3] of 108 nM. For the same compound, the GI50 [4] was 40.3 nM, the TGI [4] was 1030 nM and the GI50 [5] was 7.22 nM. It also gave a TGI [5] of 103 nM, a GI50 [6] of 10.2 nM and a TGI [6] of 179 nM. The GI50 [7] was 45.1 nM, the TGI [7] was 267 nM and the GI50 [8] was 19 nM. The TGI [8] was 214 nM, the GI50 [9] was 10.2 nM and the TGI [9] was 166 nM. The GI50 [10] was 7.13 nM, the TGI [10] was 93.5 nM and the GI50 [11] was 14.7 nM. For the same compound, the TGI [11] was 5690 nM, the GI50 [12] was 45.5 nM and the TGI [12] was 166 nM. For the same compound, the GI50 [13] was 29.2 nM, the TGI [13] was 89.6 nM and the GI50 [14] was 22.3 nM. It also gave a TGI [14] of 304 nM, a GI50 [15] of 44.8 nM and a TGI [15] of 143 nM. The GI50 [16] was less than 17.2 nM, the TGI [16] was 129 nM and the GI50 [17] was 44.2 nM. For the same compound, the TGI [17] was 1280 nM, the GI50 [18] was 19.8 nM and the TGI [18] was 101 nM. For the same compound, the GI50 [19] was 20.7 nM, the TGI [19] was 1340 nM and the GI50 [20] was 39.9 nM. For the same compound, the TGI [20] was 213 nM, the GI50 [21] was 5.37 nM and the TGI [21] was 653 nM. It also gave a GI50 [22] of 23.8 nM, a TGI [22] of 749 nM and a GI50 [23] of 11.9 nM. For the same compound, the TGI [23] was 231 nM, the GI50 [24] was 8.57 nM and the TGI [24] was 177 nM. It also gave a GI50 [25] of 14.2 nM, a TGI [25] of 16700 nM and a GI50 [26] of 14.1 nM. For the same compound, the TGI [26] was 126 nM, the GI50 [27] was 10 nM and the TGI [27] was 48.5 nM. It also gave a GI50 [28] of 18.6 nM, a TGI [28] of 6250 nM and a GI50 [29] of 11.8 nM. For the same compound, the TGI [29] was 101 nM, the GI50 [30] was 15.3 nM and the TGI [30] was 52 nM. The GI50 [31] was 20.6 nM, the TGI [31] was 360 nM and the GI50 [32] was 42.9 nM. For the same compound, the TGI [32] was 1250 nM, the GI50 [33] was 38.3 nM and the TGI [33] was 569 nM. It also gave a GI50 [34] of 10.5 nM, a TGI [34] of 78.2 nM and a GI50 [35] of 11.5 nM. It also gave a TGI [35] of 75.9 nM, a GI50 [36] of 9.61 nM and a TGI [36] of 6820 nM. The GI50 [37] was 48 nM, the TGI [37] was 3890 nM and the GI50 [38] was 32.7 nM. For the same compound, the TGI [38] was 408 nM, the GI50 [39] was 15.5 nM and the TGI [39] was 146 nM. The GI50 [40] was 26.6 nM, the TGI [40] was 659 nM and the GI50 [41] was 19.2 nM. It also gave a TGI [41] of 339 nM, a GI50 [42] of 18.2 nM and a TGI [42] of 81.4 nM. The GI50 [43] was 17.3 nM, the TGI [43] was 207 nM and the GI50 [44] was 11.8 nM. The TGI [44] was 260 nM, the GI50 [45] was 7.9 nM and the TGI [45] was 72 nM. It also gave a GI50 [46] of 25.6 nM, a TGI [46] of 492 nM and a GI50 [58] of 11.9 nM. It also gave a TGI [58] of 52.2 nM, a GI50 [47] of 28.5 nM and a TGI [47] of 2720 nM. The GI50 [48] was 8.33 nM, the TGI [48] was 205 nM and the GI50 [49] was 10.9 nM. It also gave a TGI [49] of 447 nM, a GI50 [50] of 9.12 nM and a TGI [50] of 2320 nM. For the same compound, the GI50 [51] was 6.7 nM, the TGI [51] was 231 nM and the GI50 [52] was 12.1 nM. The TGI [52] was 626 nM, the GI50 [54] was 16.2 nM and the TGI [54] was 716 nM. For the same compound, the GI50 [55] was 26.1 nM, the TGI [55] was 277 nM and the GI50 [56] was 17 nM. For the same compound, the TGI [56] was 106 nM, the GI50 [57] was less than 10.5 nM and the TGI [57] was 757 nM.

Reference: PubChem BioAssay (NCI)
